# From US20100099088A1, “RELIABLE DETECTION OF VANCOMYCIN-INTERMEDIATE STAPHYLOCOCCUS AUREUS” (priority 2006, published 2010)
# Read-outs that look alike come from different tables or passages of the source.
# Tests used:
# [1] = test system: Staphylococcus aureus strains (MRSA, hVISA/VISA, in vitro-selected); assay: CLSI-approved (standard) Etest, vancomycin MIC, 0.5 McFarland inoculum; assay type: cell-based; conditions: for MIC: Staphylococcus aureus; for CLSI Etest category: key: S = sensitive; I = intermediate; R = resistant
# Description: Vancomycin MICs were determined using standard Etest methods. Briefly, colonies from a fresh overnight plate were resuspended in saline to a turbidity equivalent to 0.5 McFarland units. This suspension was swabbed onto Mueller-Hinton agar plates, allowed to dry, and overlaid with a Vancomycin Etest strip (AB Biodisk). Plates were incubated at 37° C. for 48 h and interpreted. […] For some MRSA strains, the macromethod Etest was also applied, using an inoculum equivalent to 2 McFarland units on Brain-Heart Infusion agar plates.
# [2] = test system: SAV2095 (SEQ ID NO.:1) expression in S. aureus; assay: SAV2095 homologue mRNA expression by qRT-PCR after growth in subinhibitory vancomycin; assay type: cell-based, Staphylococcus aureus
# Description: Overnight cultures of strains were diluted 1/100 in tryptic soy broth containing either 0 (for all strains), 1 (for selected MRSA), or 3 (for selected VISA) mg/L vancomycin and grown to mid-log phase. Cells from 1 mL culture were harvested and treated with RNAProtect (Qiagen). Cells were subsequently treated with lysostaphin for 30 min at 37° C., and total RNA was isolated from each sample and each condition using the RNeasy Kit (Qiagen). Samples were then treated with Turbo DNA-free (Ambion, Austin, Tex.) to remove any contaminating genomic DNA. RNA quantity and quality was assessed using an Agilent Technologies 2100 bioanalyzer and RNA 6000 Nano LabChip kit (Agilent, Mountain View, Calif.). Complementary DNA (cDNA) was generated from 688 ng of total RNA using a random primer hexamer following the protocol for Superscript II (Invitrogen, Carlsbad, Calif.) in a 20 μL volume.
# Equal amounts (34 ng) of cDNA were run in triplicate and amplified in a 15 μl reaction containing 7.5 μL of 2× Universal PCR Master Mix (Applied Biosystems, Foster City, Calif.), 10 nM of Z-tailed forward primer, 100 nM of reverse primer, 100 nM of Amplifluor Uniprimer probe (Chemicon, Temecula, Calif.), and 1 μL of DNA target. Moreover, no-template controls were used as recommended. The mixture was incubated at 50° C. for 2 min, at 95° C. for 4 min, and then cycled at 95° C. for 15 sec and at 55° C. for 40 sec 55 times using the Applied Biosystems Prism 7900 Sequence Detector. Amplification efficiencies were validated and normalized to expression of the 16S rRNA gene as a standard, and quantity of target and standard genes were calculated according to a standard curve. Primers were designed using Primer Express 2.0 (Applied Biosystems) and their sequence data are the following: for SAV2095, forward, 5-Ztail-[…]-3, reverse, 5-[…]-3; and for 16S rRNA, forward, 5-Ztail-[…]-3, reverse, 5-GCTTAAGGGTTGCGCTCGT-3. Amplicons were detected using the Amplifluor™ UniPrimerr™ system where forward primers used contained the 5′ Z sequence ACTGAACCTGACCGTACA. As it is appreciated by a person skilled in the art, it is to be understood herein that other primers may be used for amplifying and detecting SAV2095 without departing from the scope of the invention. A person skilled in the art knows how to design primers for any given amplification assay. For example, in a multiplex assay, primers would need to have similar melting temperatures and low complementarity, etc.
# [3] = test system: Staphylococcus aureus strains (MRSA, hVISA/VISA); conditions: cited from earlier work; for Modified Etest category: key: S = sensitive; I = intermediate; R = resistant
# [4] = test system: Staphylococcus aureus hVISA/VISA strains; design: key: CG, confluent growth; IC, individual colonies; NG, no growth; conditions: cited from earlier work
# Japanese strain Mu3 = conditions: strain Mu3, tests as susceptible; cited from earlier work
# [5] = strain 160013 (NRS283), 2 McF inoculum
# [6] = strain BR 5 (NRS56), 2 McF inoculum
# [7] = strain HIP07930 (NRS22), 2 McF inoculum
# [8] = strain HIP09433 (NRS27), 2 McF inoculum
# [9] = strain HIP09662 (NRS28), 2 McF inoculum
# [10] = strain HIP12864 (NRS402), 2 McF inoculum
# [11] = strain LIM 1 (NRS35), 2 McF inoculum
# [12] = strain LIM 3 (NRS37), 2 McF inoculum
# [13] = strain LY-1999 0620-01 (NRS63), 2 McF inoculum
# [14] = strain LY-1999 0620-02 (NRS64), 2 McF inoculum
# [15] = strain Mu3 (NRS2), 2 McF inoculum
# [16] = strain Mu50 (NRS1), 2 McF inoculum
# [17] = strain SA MER (NRS11), 2 McF inoculum
# [18] = strain SA MER-S20 (NRS14), 2 McF inoculum
smiles,measurement,setting,value
CN[C@H](CC(C)C)C(=O)N[C@H]1C(=O)N[C@@H](CC(N)=O)C(=O)N[C@H]2C(=O)N[C@H]3C(=O)N[C@H](C(=O)N[C@H](C(=O)O)c4cc(O)cc(O)c4-c4cc3ccc4O)[C@H](O)c3ccc(c(Cl)c3)Oc3cc2cc(c3O[C@@H]2O[C@H](CO)[C@@H](O)[C@H](O)[C@H]2O[C@H]2C[C@](C)(N)[C@H](O)[C@H](C)O2)Oc2ccc(cc2Cl)[C@H]1O [vancomycin],MIC,"[1]; ATCC 29213 / MRSA / VISA, control strain S. aureus ATCC29213, read-out: MIC (standard Etest)",1.5 µg/mL
same,MIC,"[1]; in vitro strain C1V8 derived from CMRSA-1, read-out: CLSI Etest MIC",10 µg/mL
same,MIC,"[1]; in vitro strain C1V30 derived from CMRSA-1, read-out: CLSI Etest MIC",16 µg/mL
same,MIC,"[1]; in vitro strain C2V4 derived from CMRSA-2, read-out: CLSI Etest MIC",6 µg/mL
same,MIC,"[1]; in vitro strain C2V8 derived from CMRSA-2, read-out: CLSI Etest MIC",9 µg/mL
same,MIC,"[1]; in vitro strain C2V24 derived from CMRSA-2, read-out: CLSI Etest MIC",30 µg/mL
same,MIC,"[1]; in vitro strain C3V24 derived from CMRSA-3, read-out: CLSI Etest MIC",20 µg/mL
same,MIC,"[1]; in vitro strain C4V8 derived from CMRSA-4, read-out: CLSI Etest MIC",5 µg/mL
same,MIC,"[1]; read-out: CLSI Etest MIC, in vitro strain C1V4 derived from CMRSA-1",5 µg/mL
same,MIC,"[1]; strain CMRSA-1 (MRSA), 0.5 McF inoculum, read-out: CLSI Etest MIC",1.5 µg/mL
same,MIC,"[1]; strain CMRSA-2 (MRSA), 0.5 McF inoculum, read-out: CLSI Etest MIC",1.5 µg/mL
same,MIC,"[1]; strain CMRSA-4 (MRSA), 0.5 McF inoculum, read-out: CLSI Etest MIC",1 µg/mL
same,CLSI Etest category,[1]; in vitro strain C1V4 derived from CMRSA-1,I
same,CLSI Etest category,[1]; in vitro strain C1V8 derived from CMRSA-1,I
same,CLSI Etest category,[1]; in vitro strain C1V30 derived from CMRSA-1,I
same,CLSI Etest category,[1]; in vitro strain C2V4 derived from CMRSA-2,I
same,CLSI Etest category,[1]; in vitro strain C2V8 derived from CMRSA-2,I
same,CLSI Etest category,[1]; in vitro strain C2V24 derived from CMRSA-2,I
same,CLSI Etest category,[1]; in vitro strain C3V4 derived from CMRSA-3,S
same,CLSI Etest category,[1]; in vitro strain C3V8 derived from CMRSA-3,I
same,CLSI Etest category,[1]; in vitro strain C3V24 derived from CMRSA-3,I
same,CLSI Etest category,[1]; in vitro strain C4V8 derived from CMRSA-4,I
same,CLSI Etest category,[1]; in vitro strain C4V20 derived from CMRSA-4,I
same,CLSI Etest category,"[1]; strain CMRSA-1 (MRSA), 0.5 McF inoculum",S
same,CLSI Etest category,"[1]; strain CMRSA-2 (MRSA), 0.5 McF inoculum",S
same,CLSI Etest category,"[1]; strain CMRSA-3 (MRSA), 0.5 McF inoculum",S
same,CLSI Etest category,"[1]; strain CMRSA-4 (MRSA), 0.5 McF inoculum",S
same,Effect on SAV2095 expression level,[2]; MRSA strains grown with subinhibitory vancomycin 1 mg/L,does not consistently increase
same,Effect on SAV2095 expression level,"[2]; MRSA strains grown with subinhibitory vancomycin 1 mg/L, listed as Vn",not in MRSA
same,Effect on SAV2095 expression level,"[2]; VISA strains grown with subinhibitory vancomycin 3 mg/L, p<0.05",consistently increased further
same,Effect on SAV2095 expression level,"[2]; VISA strains grown with subinhibitory vancomycin 3 mg/L, p<0.05, listed as Vn",increased expression of SAV2095
same,Modified Etest MIC,[3]; [5],8 µg/mL
same,Modified Etest category,[3]; [5],I
same,Modified Etest MIC,[3]; [6],16 µg/mL
same,Modified Etest category,[3]; [6],I
same,Modified Etest MIC,[3]; [7],8 µg/mL
same,Modified Etest category,[3]; [7],I
same,Modified Etest MIC,[3]; [8],8 µg/mL
same,Modified Etest category,[3]; [8],I
same,Modified Etest MIC,[3]; [9],8 µg/mL
same,Modified Etest category,[3]; [9],I
same,Modified Etest MIC,[3]; [10],48 µg/mL
same,Modified Etest category,[3]; [10],R
same,Modified Etest MIC,[3]; [11],4 µg/mL
same,Modified Etest category,[3]; [11],S
same,Modified Etest MIC,[3]; [12],6 µg/mL
same,Modified Etest category,[3]; [12],I
same,Modified Etest MIC,[3]; [13],16 µg/mL
same,Modified Etest category,[3]; [13],I
same,Modified Etest MIC,[3]; [14],6 µg/mL
same,Modified Etest category,[3]; [14],I
same,Modified Etest MIC,[3]; [15],6 µg/mL
same,Modified Etest category,[3]; [15],I
same,Modified Etest MIC,[3]; [16],12 µg/mL
same,Modified Etest category,[3]; [16],I
same,Modified Etest MIC,"[3]; strain NRS118, 2 McF inoculum",24 µg/mL
same,Modified Etest category,"[3]; strain NRS118, 2 McF inoculum",I
same,Modified Etest MIC,[3]; [17],8 µg/mL
same,Modified Etest category,[3]; [17],I
same,Modified Etest MIC,[3]; [18],24 µg/mL
same,Modified Etest category,[3]; [18],I
same,Agar screen growth,"[4]; strain 160013 (NRS283), 48 h incubation",IC (48)
same,Agar screen growth,"[4]; strain BR 5 (NRS56), 24 h incubation",CG (24)
same,Agar screen growth,"[4]; strain HIP07930 (NRS22), 48 h incubation",IC (48)
same,Agar screen growth,"[4]; strain HIP09433 (NRS27), 72 h incubation",NG (72)
same,Agar screen growth,"[4]; strain HIP09662 (NRS28), 72 h incubation",NG (72)
same,Agar screen growth,"[4]; strain HIP12864 (NRS402), 24 h incubation",CG (24)
same,Agar screen growth,"[4]; strain LIM 1 (NRS35), 72 h incubation",NG (72)
same,Agar screen growth,"[4]; strain LIM 3 (NRS37), 72 h incubation",NG (72)
same,Agar screen growth,"[4]; strain LY-1999 0620-01 (NRS63), 48 h incubation",IC (48)
same,Agar screen growth,"[4]; strain LY-1999 0620-02 (NRS64), 72 h incubation",NG (72)
same,Agar screen growth,"[4]; strain Mu3 (NRS2), 72 h incubation",NG (72)
same,Agar screen growth,"[4]; strain Mu50 (NRS1), 24 h incubation",CG (24)
same,Agar screen growth,"[4]; strain NRS118, 24 h incubation",CG (24)
same,Agar screen growth,"[4]; strain SA MER (NRS11), 72 h incubation",NG (72)
same,Agar screen growth,"[4]; strain SA MER-S20 (NRS14), 24 h incubation",CG (24)
same,MIC (minimum inhibitory concentration),Japanese strain Mu3,< 4 µg/mL
